Structures can show the parent of a compound that is named as a salt.
Columns and labels:
[1] = target: T1, endogenous ODC in Kelly neuroblastoma cells (Homo sapiens, UniProt P11926); test: Cell-based ODC activity assay; conditions: 500 μM inhibitor, Figure 6A
T1 construct: host or cells: Kelly neuroblastoma cells
T1 sequence (P11926 1-461): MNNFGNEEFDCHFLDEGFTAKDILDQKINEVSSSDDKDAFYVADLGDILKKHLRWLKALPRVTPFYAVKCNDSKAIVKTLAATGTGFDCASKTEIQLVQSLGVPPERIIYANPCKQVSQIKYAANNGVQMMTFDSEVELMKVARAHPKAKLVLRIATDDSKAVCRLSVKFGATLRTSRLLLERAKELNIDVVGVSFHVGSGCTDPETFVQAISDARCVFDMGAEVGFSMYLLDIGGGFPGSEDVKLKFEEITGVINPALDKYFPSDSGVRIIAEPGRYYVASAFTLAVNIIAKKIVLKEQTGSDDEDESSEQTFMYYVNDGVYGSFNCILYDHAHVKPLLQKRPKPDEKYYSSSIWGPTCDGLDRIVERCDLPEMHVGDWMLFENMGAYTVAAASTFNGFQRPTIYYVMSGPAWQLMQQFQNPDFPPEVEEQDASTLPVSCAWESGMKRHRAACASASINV
Method: In vitro ODC activity was measured using 100 ng of purified human ODC enzyme, as we previously described.[53],[99] ODC was incubated with increasing concentrations of inhibitors for 30 min at room temperature in a buffer containing 25 mM Tris and 0.1 mM EDTA. Each of the reactions was added to 200 μL of assay mix containing 6.25 mM Tris HCl (pH 7.5), 100 μM L-ornithine, 50 μM pyridoxal-5-phosphate, 1.56 mM DTT and 0.1 μCi [1–14C] L-ornithine (American Radiolabeled Chemicals, Inc., specific activity 55 mCi/mmol) in a microcentrifuge tube. In the cell-based ODC activity assay, Kelly neuroblastoma cells that were treated with 500 μM inhibitors were harvested in a buffer containing 25 mM Tris HCl, 0.1 mM EDTA, and 2.5 mM DTT. Fifty microliters of each homogenate were added to 200 μL of assay mix containing 6.25 mM tris HCl (pH 7.5), 500 μM L-ornithine, 50 μM pyridoxal-5-phosphate, 1.56 mM DTT and 0.1 μCi [1–14C] L-ornithine (American Radiolabeled Chemicals, Inc., specific activity 55 mCi/mmol) in a microcentrifuge tube. […] Disintegrations per minute (DPM) of each sample was measured using a TriCarb liquid scintillation counter (PerkinElmer). The specific ODC activity is expressed as nmol CO2/min/mg protein (in vitro) or pmol CO2/min/mg protein (cell-based). The individual ODC inhibitor IC50 values were determined using Graphpad Prism 8.

[2] = target: homogeneous liver adenosylmethionine decarboxylase; set-up: method as in PMID 3861182; conditions: irreversible; read-out: Ki, irreversible inhibitor of liver adenosylmethionine decarboxylase; cited from earlier work
[3] = target: homogeneous bovine brain spermidine synthase; set-up: method as in PMID 3861182; conditions: competitive; read-out: Ki, competitive inhibitor of bovine brain spermidine synthase; cited from earlier work
human ODC = tested on: human ODC; set-up: method as in earlier work; conditions: 49−51; cited from earlier work
[4] = target: homogeneous mouse kidney ODC; set-up: method as in PMID 3861182; conditions: competitive; read-out: Ki, competitive inhibitor of mouse kidney ODC; cited from earlier work
[5] = cited from earlier work
[6] = no reference printed for this property; cited from earlier work

SMILES	endogenous cellular ODC activity relative to control (in words) [1]	Ki [2] [nM]	Ki [3] [nM]	IC50 against human ODC (in words) (human ODC)	potency against human ODC, times higher than that of DFMO (human ODC)	Ki [4] [nM]	pKa of hydroxyl amine [5]	water solubility (in words) [6]
NCCCON [APA, 3-(Aminooxy)propan-1-Amine Dihydrochloride]	significantly reduced	50000	2300	low nM range	10,000 times	3.2	~5.9	highly water-soluble
Cl.Cl.NOCC1(F)CCNC1 (stereo not drawn) [Compound 11, 3-[(aminooxy)methyl]-3-fluoropyrrolidine di-formic acid]	greatest reduction	–	–	–	–	–	–	–

— article PMC11912471 (Journal of Medicinal Chemistry, 2025)
